Common to all, as to format: in vivo
Experiment [1] has as its system male ICR mouse. The experiment can be described thus: Acetic acid-induced writhing test in mouse. Particulars: po, p.o, acetic acid i.p. 1 hour after dosing, writhing counted for 10 minutes, read-out: Writhing Test Suppression of pain response. In a few lines:
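Test material given orally at 10 mg/kg to male mice (30–35 g); 1 h later 0.8% acetic acid injected i.p. Writhes counted over 10 min immediately afterwards; analgesia expressed as percent suppression of writhing versus vehicle group.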
(Writhing tests count abdominal constrictions after an irritant is injected.)

Experiment [2] has as its system male ICR mouse. The experiment can be described thus: Hot plate test in mouse. Particulars: po, p.o, 1 hour after dosing, hot plate 55° C., read-out: Hot Plate Test Increase in latency of avoidance response. In a few lines: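 Male ICR mice (25–30 g) dosed orally at 30 mg/kg and placed on a 55° C. hot plate 1 h later. Latency to forefoot or hind-leg avoidance (flinching, licking, jumping) recorded; effect expressed as % increase in latency over vehicle group.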
For orientation: Hot-plate and tail-flick tests time the reaction to a heat stimulus.

Experiment [3] has as its system male ICR mouse. The experiment can be described thus: Elevated plus maze (EPM) test in mouse. Particulars: po, p.o, 1 hour after dosing, 5 minutes observation, read-out: Elevated Plus Maze Change index in Open-Arm Time. In a few lines: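 Male ICR mice (20–25 g) received test material orally at 10 mg/kg, and open-arm time on the maze was recorded over 5 min starting 1 h after dosing. Value is the change index in open-arm time: (treated − vehicle)/vehicle × 100%.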

The subject of experiment [4] is male ICR mouse. The experiment can be described thus: Head twitch potentiation induced by 5-HTP (5-HTP potentiation test) in mouse. As to conditions: po, 0.5 h, p.o, 5-HTP 80 mg/kg + Carbidopa 25 mg/kg i.p. 30 minutes after dosing, head twitches counted for 2 minutes, negative = 5-HT2A antagonist, read-out: 5-HTP Potentiation Increase rate in Head Twitch No. In a few lines:
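Male ICR mice (20-25 g) dosed orally at 30 mg/kg; 30 min later given 5-HTP (80 mg/kg) plus carbidopa (25 mg/kg) i.p. Head twitches counted for 2 min starting 30 min after i.p. dosing; effect expressed as % increase in twitch number versus vehicle group.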

Where a name gives a salt, the structure may show the parent alone.

Turning to `COc1ccc(N2CCN(C(=O)CC(OC(N)=O)c3ccc([N+](=O)[O-])cc3)CC2)cc1OC` (stereo not shown) [Example 36, carbamic acid 3-[4-(3,4-dimethoxy-phenyl)-piperazin-1-yl]-1-(4-nitro-phenyl)-3-oxo-propyl ester; hydrochloride], the inhibition in vivo at 10 mg/kg with male ICR mouse [1] was found to be 42%. The change in vivo at 30 mg/kg with male ICR mouse [2] was found to be 20.5%; in the experiment with male ICR mouse [4], 93.8%. In addition, in the experiment on male ICR mouse [3], the change in vivo at 10 mg/kg is 35.3%.

As for `NC(=O)OC(CC(=O)N1CCN(Cc2ccc(Cl)c(Cl)c2)CC1)c1ccccc1` (stereo not shown) [Example 37, carbamic acid 3-[4-(3,4-dichloro-benzyl)-piperazin-1-yl]-3-oxo-1-phenyl-propyl ester], in the experiment with male ICR mouse [1], the inhibition in vivo at 10 mg/kg came out at 38.1%. In addition, the change in vivo at 30 mg/kg in the experiment on male ICR mouse [2] is 10%; in the experiment with male ICR mouse [4], 167%. Also, the change in vivo at 10 mg/kg in the experiment with male ICR mouse [3] is 98.8%.

Turning to `COc1ccc(N2CCN(C(=O)C[C@@H](OC(N)=O)c3ccccc3)CC2)cc1OC` [Example 71, (R)-carbamic acid 3-[4-(3,4-dimethoxy-phenyl)-piperazin-1-yl]-3-oxo-1-phenyl-propyl ester], the inhibition in vivo at 10 mg/kg in the experiment on male ICR mouse [1] was 46.5%. Moreover, the change in vivo at 30 mg/kg in the experiment on male ICR mouse [2] turned out to be 55.8%; in the experiment on male ICR mouse [4], 127%. Also, the change in vivo at 10 mg/kg with male ICR mouse [3] worked out at 125%.

Regarding `NC(=O)OC(CC(=O)N1CCN(CCc2ccc(Cl)c(Cl)c2)CC1)c1ccccc1` (stereo not shown) [Example 39, carbamic acid 3-{4-[2-(3,4-dichloro-phenyl)-ethyl]-piperazin-1-yl}-3-oxo-1-phenyl-propyl ester], in the experiment on male ICR mouse [1], the inhibition in vivo at 10 mg/kg stood at 23.2%. Also, the change in vivo at 30 mg/kg in the experiment with male ICR mouse [2] was 18.7%; with male ICR mouse [4], 319%. Besides, in the experiment on male ICR mouse [3], the change in vivo at 10 mg/kg turned out to be 57.8%.

The values above are taken from US8901116B2, “Method for treating pain, anxiety or depression using carbamoyloxy alkanoyl piperazine compound” (SK Biopharmaceuticals Co., Ltd., priority 2007, dated 2014).
